System: T-47D spheroids with HUVEC/MSC, viability
Test: Anticancer human tumor T-47D cell line growth inhibition [PI3K];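 also: spheroids exposed to agents for seven days before reading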;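 as to viability, T/C: percent of DMSO vehicle control luminescence so 100% = untreated growth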
Conditions: for IC50: curve of first compound; for viability, T/C: stronger effect = lower value
Procedure, shortened: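 Tumor cells grown as multi-cell spheroids with HUVEC endothelial cells and MSC fibroblast-like stroma were treated with targeted agents combined with inavolisib, alpelisib, duvelisib or copanlisib. Doses fell in half-log steps from near clinical Cmax, else from 10 microM. Viability was measured.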

[1] = second compound 0.00316 µM, first compound 0.0316 µM
[2] = second compound 0.00316 µM, first compound 0.1 µM
[3] = second compound 0.00316 µM, first compound 0.316 µM
[4] = second compound 0.00316 µM, first compound 1 µM
[5] = second compound 0.00316 µM, first compound 3.16 µM
[6] = second compound 0.00316 µM, first compound 10 µM
[7] = second compound 0.01 µM, first compound 0.0316 µM
[8] = second compound 0.01 µM, first compound 0.1 µM
[9] = second compound 0.01 µM, first compound 0.316 µM
[10] = second compound 0.01 µM, first compound 1 µM
[11] = second compound 0.01 µM, first compound 3.16 µM
[12] = second compound 0.01 µM, first compound 10 µM
[13] = second compound 0.0316 µM, first compound 0.0316 µM
[14] = second compound 0.0316 µM, first compound 0.1 µM
[15] = second compound 0.0316 µM, first compound 0.316 µM
[16] = second compound 0.0316 µM, first compound 1 µM
[17] = second compound 0.0316 µM, first compound 3.16 µM
[18] = second compound 0.0316 µM, first compound 10 µM
[19] = second compound 0.1 µM, first compound 0.0316 µM
[20] = second compound 0.1 µM, first compound 0.1 µM
[21] = second compound 0.1 µM, first compound 0.316 µM
[22] = second compound 0.1 µM, first compound 1 µM
[23] = second compound 0.1 µM, first compound 3.16 µM
[24] = second compound 0.1 µM, first compound 10 µM
[25] = second compound 0.316 µM, first compound 0.0316 µM
[26] = second compound 0.316 µM, first compound 0.1 µM
[27] = second compound 0.316 µM, first compound 0.316 µM
[28] = second compound 0.316 µM, first compound 1 µM
[29] = second compound 0.316 µM, first compound 3.16 µM
[30] = second compound 0.316 µM, first compound 10 µM
[31] = second compound 1 µM, first compound 0.0316 µM
[32] = second compound 1 µM, first compound 0.1 µM
[33] = second compound 1 µM, first compound 0.316 µM
[34] = second compound 1 µM, first compound 1 µM
[35] = second compound 1 µM, first compound 3.16 µM
[36] = second compound 1 µM, first compound 10 µM

## Cn1ncc(Cl)c1-c1cc(C(=O)NC(CN)Cc2cccc(F)c2)sc1Cl (centres undefined) + CC(Nc1ccc2c(c1)OCCn1cc(N3C(=O)OCC3C(F)F)nc1-2)C(N)=O
Second compound 0.00316 µM
  IC50: > 10 µM
Second compound 0.01 µM
  IC50: > 10 µM
Second compound 0.0316 µM
  IC50: > 10 µM
Second compound 0.1 µM
  IC50: > 10 µM
Second compound 0.316 µM
  IC50: > 10 µM
Second compound 1 µM
  IC50: < 0.0316 µM
[1]
  viability, T/C: 91.4%
[2]
  viability, T/C: 86.4%
[3]
  viability, T/C: 80.5%
[4]
  viability, T/C: 81.8%
[5]
  viability, T/C: 73.7%
[6]
  viability, T/C: 81.5%
[7]
  viability, T/C: 91.2%
[8]
  viability, T/C: 89.6%
[9]
  viability, T/C: 82.9%
[10]
  viability, T/C: 70.2%
[11]
  viability, T/C: 65.5%
[12]
  viability, T/C: 87.9%
[13]
  viability, T/C: 82.1%
[14]
  viability, T/C: 82.7%
[15]
  viability, T/C: 68.1%
[16]
  viability, T/C: 67.8%
[17]
  viability, T/C: 59.5%
[18]
  viability, T/C: 90.9%
[19]
  viability, T/C: 95.7%
[20]
  viability, T/C: 92.7%
[21]
  viability, T/C: 71.8%
[22]
  viability, T/C: 55.6%
[23]
  viability, T/C: 58.9%
[24]
  viability, T/C: 75%
[25]
  viability, T/C: 71.4%
[26]
  viability, T/C: 59.7%
[27]
  viability, T/C: 60.8%
[28]
  viability, T/C: 49.7%
[29]
  viability, T/C: 47.2%
[30]
  viability, T/C: 64.6%
[31]
  viability, T/C: 50.8%
[32]
  viability, T/C: 49.5%
[33]
  viability, T/C: 49.8%
[34]
  viability, T/C: 45.5%
[35]
  viability, T/C: 50.3%
[36]
  viability, T/C: 59.3%

## C=CC(=O)N1CCN(c2nc(=O)n(-c3c(C)ccnc3C(C)C)c3nc(-c4c(O)cccc4F)c(F)cc23)C(C)C1 (centres undefined) + CC(Nc1ccc2c(c1)OCCn1cc(N3C(=O)OCC3C(F)F)nc1-2)C(N)=O
Second compound 0.00316 µM
  IC50: > 10 µM
Second compound 0.01 µM
  IC50: > 10 µM
Second compound 0.0316 µM
  IC50: > 10 µM
Second compound 0.1 µM
  IC50: > 10 µM
Second compound 0.316 µM
  IC50: > 10 µM
Second compound 1 µM
  IC50: < 0.0316 µM
[1]
  viability, T/C: 87.5%
[2]
  viability, T/C: 103%
[3]
  viability, T/C: 78.8%
[4]
  viability, T/C: 86.3%
[5]
  viability, T/C: 97.3%
[6]
  viability, T/C: 113%
[7]
  viability, T/C: 104%
[8]
  viability, T/C: 67.8%
[9]
  viability, T/C: 106%
[10]
  viability, T/C: 84.8%
[11]
  viability, T/C: 99.9%
[12]
  viability, T/C: 92.1%
[13]
  viability, T/C: 99%
[14]
  viability, T/C: 84.8%
[15]
  viability, T/C: 95.9%
[16]
  viability, T/C: 98%
[17]
  viability, T/C: 88.2%
[18]
  viability, T/C: 88.3%
[19]
  viability, T/C: 81.2%
[20]
  viability, T/C: 83.6%
[21]
  viability, T/C: 83.8%
[22]
  viability, T/C: 98.5%
[23]
  viability, T/C: 82.9%
[24]
  viability, T/C: 96.8%
[25]
  viability, T/C: 71.2%
[26]
  viability, T/C: 73.3%
[27]
  viability, T/C: 77%
[28]
  viability, T/C: 74.5%
[29]
  viability, T/C: 75.9%
[30]
  viability, T/C: 79.2%
[31]
  viability, T/C: 48.5%
[32]
  viability, T/C: 47.2%
[33]
  viability, T/C: 59%
[34]
  viability, T/C: 54.2%
[35]
  viability, T/C: 63.4%
[36]
  viability, T/C: 67.2%

Reference: PubChem BioAssay AID1963959 (Molecular Pharmacology Branch, DTP, NCI, 2024)
